Reference: US20090022824A1, “Pesticidal formulations” (Akhil Technologies Pty Ltd, priority 2005, published 2009)

Test system: root-knot nematode (Meloidogyne javanica)
Test: Efficacy to control root-knot nematode, pot trial with tomato plants
Format: in vivo
Conditions: tomato cv. Tiny Tim, relative to untreated control
Description: The efficacy of pesticidal formulations in the control of root-knot nematode (Meloidogyne javanica) as a pre-plant soil pesticidal formulation was investigated.
The root-knot nematode colonies were prepared with 1 kg of river sand placed in 100 mm diameter pots. The sand was inoculated with 10,000 eggs of root-knot nematode (M. javanica). The eggs were harvested from the roots of infected tomato plants (Lycopersicon esculentum cv. Tiny Tim) by washing in a 1% bleach solution for 3 minutes, collecting the […] on a 25 μm sieve and rinsing in running tap water for 2 minutes.
The appropriate treatment was applied to each pot in 5 mL of water using five 1 mL injections spaced evenly around the pot. Each dilution of the pesticidal formulation was applied using a pipette so that the tip of the pipette was 20 mm below the soil surface. The pots were allowed to stand for 7 days before planting a three week old tomato plant (c.v. Tiny Tim) in each pot.
Six weeks after planting the tomatoes were harvested. The tops of the plants were removed and dried for 4 days at 70° C. before being weighed. […] The juvenile nematodes were collected on a 25 μm sieve, backwashed and counted using a compound microscope at 40× magnification. […]

CNC(=S)[S-].[Na+] [metham sodium]
juvenile root-knot nematodes extracted from the roots (six weeks after planting, FIG. 2): significantly fewer
galls on the root system of tomato plants (gall rating) (soil inoculated with 10,000 eggs, harvested six weeks after planting, FIG. 1): significantly fewer
